The values below are quoted from earlier work in patent US8846084B2, “Controlled release compositions containing zolpidem” (Wockhardt Ltd, priority 2005, dated 2014).

The target of this data set is T1, (BZ)1 receptor (Homo sapiens, UniProt P14867+P18507).
T1 sequence (P14867 28-456): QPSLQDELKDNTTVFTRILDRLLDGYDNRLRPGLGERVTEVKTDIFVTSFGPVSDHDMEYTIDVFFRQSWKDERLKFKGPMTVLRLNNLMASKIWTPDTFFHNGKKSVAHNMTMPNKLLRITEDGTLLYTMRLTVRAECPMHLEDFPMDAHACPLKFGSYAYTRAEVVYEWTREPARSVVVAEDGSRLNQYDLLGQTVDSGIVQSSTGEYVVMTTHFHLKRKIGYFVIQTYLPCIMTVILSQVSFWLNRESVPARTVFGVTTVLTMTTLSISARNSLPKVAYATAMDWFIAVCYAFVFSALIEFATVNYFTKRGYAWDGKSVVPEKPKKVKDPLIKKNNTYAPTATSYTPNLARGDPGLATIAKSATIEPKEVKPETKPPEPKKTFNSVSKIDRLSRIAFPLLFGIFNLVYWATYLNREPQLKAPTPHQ
T1 sequence (P18507 40-467 limits assumed): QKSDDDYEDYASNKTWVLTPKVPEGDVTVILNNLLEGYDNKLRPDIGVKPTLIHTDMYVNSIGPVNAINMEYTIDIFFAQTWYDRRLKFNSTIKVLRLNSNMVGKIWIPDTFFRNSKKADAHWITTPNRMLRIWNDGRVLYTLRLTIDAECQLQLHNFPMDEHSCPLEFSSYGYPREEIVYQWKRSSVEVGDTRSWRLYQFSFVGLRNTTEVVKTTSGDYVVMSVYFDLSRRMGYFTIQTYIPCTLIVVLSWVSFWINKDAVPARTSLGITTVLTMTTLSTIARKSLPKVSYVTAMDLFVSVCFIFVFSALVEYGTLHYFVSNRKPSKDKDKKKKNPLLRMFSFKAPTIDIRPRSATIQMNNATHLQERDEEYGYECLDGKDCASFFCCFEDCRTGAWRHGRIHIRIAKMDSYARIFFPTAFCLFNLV
T1 sequence (P47870 25-512 partner limits assumed): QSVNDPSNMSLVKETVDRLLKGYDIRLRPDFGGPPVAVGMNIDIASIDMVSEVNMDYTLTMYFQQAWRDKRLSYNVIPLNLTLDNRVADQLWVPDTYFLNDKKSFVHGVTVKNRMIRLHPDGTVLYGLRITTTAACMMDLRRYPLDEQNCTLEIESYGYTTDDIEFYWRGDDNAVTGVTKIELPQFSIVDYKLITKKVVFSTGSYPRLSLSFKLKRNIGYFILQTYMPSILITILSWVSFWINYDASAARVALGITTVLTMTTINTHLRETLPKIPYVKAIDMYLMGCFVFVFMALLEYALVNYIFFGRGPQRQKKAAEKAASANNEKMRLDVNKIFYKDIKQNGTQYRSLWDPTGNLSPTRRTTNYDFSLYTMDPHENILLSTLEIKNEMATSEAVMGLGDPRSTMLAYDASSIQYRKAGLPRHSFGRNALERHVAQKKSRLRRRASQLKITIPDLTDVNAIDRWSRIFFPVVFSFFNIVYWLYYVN
The following applies: in vitro; affinity ratio of the α1-subunits/α5-subunits.

Turning to `Cc1ccc(-c2nc3ccc(C)cn3c2CC(=O)N(C)C)cc1` [zolpidem, N,N,6-trimethyl-2-p-tolylimidazo[1,2-a]pyridine-3-acetamide], the “receptor subtype binding preference” value is “binds the (BZ)1 receptor preferentially with a high affinity ratio”.
